This note sets out measurements from ChEMBL document CHEMBL5715956, “Selective Targeting of Bromodomains of the Bromodomain-PHD Fingers Family Impairs Osteoclast Differentiation” (ACS Chem Biol, 2017).

In test [1] the target is Transcription initiation factor TFIID subunit 1-like (Homo sapiens) (UniProt Q8IZX4). The note with it: dose 10.0 µM.
The target in test [2] is CREB-binding protein (Homo sapiens) (UniProt Q92793). The conditions noted are these: dose 10.0 µM.
Test [3] concerns the target Bromodomain-containing protein 4 (Homo sapiens) (UniProt O60885). Nature of the test: Binding affinity to BRD4 BD1 (unknown origin) assessed as change in enthalpy at 14 uM by Isothermal titration calorimetry.
The target in test [4] is Beta-2 adrenergic receptor (Homo sapiens) (UniProt P07550). Kind of test: Inhibition of Beta2 (unknown origin) at 10 uM relative to control.
In test [5] the target is T1, Bromodomain-containing protein 1 (Homo sapiens) (UniProt O95696).
T1 sequence (whole entry): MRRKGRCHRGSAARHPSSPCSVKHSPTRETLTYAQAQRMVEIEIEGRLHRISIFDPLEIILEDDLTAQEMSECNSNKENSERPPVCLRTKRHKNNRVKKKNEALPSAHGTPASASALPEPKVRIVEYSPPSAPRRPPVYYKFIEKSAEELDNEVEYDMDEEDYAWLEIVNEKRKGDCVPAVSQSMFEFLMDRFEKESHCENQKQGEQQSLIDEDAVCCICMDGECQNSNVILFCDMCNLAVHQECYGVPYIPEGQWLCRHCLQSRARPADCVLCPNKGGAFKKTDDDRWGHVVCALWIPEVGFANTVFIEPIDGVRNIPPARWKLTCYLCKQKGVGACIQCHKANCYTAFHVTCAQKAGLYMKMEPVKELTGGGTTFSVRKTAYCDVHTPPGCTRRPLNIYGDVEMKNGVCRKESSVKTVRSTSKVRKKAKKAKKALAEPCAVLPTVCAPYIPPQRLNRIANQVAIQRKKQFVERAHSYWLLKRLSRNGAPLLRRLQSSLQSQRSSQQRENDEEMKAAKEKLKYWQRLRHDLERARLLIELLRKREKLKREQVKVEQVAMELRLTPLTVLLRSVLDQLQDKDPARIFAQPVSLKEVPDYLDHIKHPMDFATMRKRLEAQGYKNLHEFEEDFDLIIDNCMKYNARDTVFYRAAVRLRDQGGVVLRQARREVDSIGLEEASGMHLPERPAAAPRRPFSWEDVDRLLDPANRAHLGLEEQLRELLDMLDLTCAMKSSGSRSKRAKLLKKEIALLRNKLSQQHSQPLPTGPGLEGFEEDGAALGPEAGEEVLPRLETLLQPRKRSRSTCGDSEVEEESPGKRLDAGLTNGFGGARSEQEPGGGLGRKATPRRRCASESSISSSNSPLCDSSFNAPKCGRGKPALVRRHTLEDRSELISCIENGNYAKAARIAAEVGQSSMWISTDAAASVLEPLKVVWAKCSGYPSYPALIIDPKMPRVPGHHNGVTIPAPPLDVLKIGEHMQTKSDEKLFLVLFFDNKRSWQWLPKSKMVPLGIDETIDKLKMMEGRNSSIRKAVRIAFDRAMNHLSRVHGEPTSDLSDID
Kind of test: Binding affinity to BRPF2 (unknown origin) assessed as change in enthalpy at 12 uM by Isothermal titration calorimetry.

Test [6] has as its target Bromodomain-containing protein 4 (Homo sapiens) (UniProt O60885). Kind of test: Binding affinity to BRD4 BD1 (unknown origin) assessed as change in entropy TdeltaS at 14 uM by Isothermal titration calorimetry. (Isothermal titration calorimetry measures the heat released or taken up as one component is titrated into another.)
Test [7] has as its target Beta-2 adrenergic receptor (Homo sapiens) (UniProt P07550). Nature of the test: Binding affinity to Beta2 (unknown origin) assessed as specific binding at 10 uM relative to control.
In test [8] the target is Bromodomain-containing protein 4 (Homo sapiens) (UniProt O60885). Nature of the test: Binding affinity to BRD4 BD1 (unknown origin) assessed as change in gibbs free energy at 14 uM by Isothermal titration calorimetry.
Test [9] deals with T2, Peregrin (Homo sapiens) (UniProt P55201).
T2 sequence (whole entry): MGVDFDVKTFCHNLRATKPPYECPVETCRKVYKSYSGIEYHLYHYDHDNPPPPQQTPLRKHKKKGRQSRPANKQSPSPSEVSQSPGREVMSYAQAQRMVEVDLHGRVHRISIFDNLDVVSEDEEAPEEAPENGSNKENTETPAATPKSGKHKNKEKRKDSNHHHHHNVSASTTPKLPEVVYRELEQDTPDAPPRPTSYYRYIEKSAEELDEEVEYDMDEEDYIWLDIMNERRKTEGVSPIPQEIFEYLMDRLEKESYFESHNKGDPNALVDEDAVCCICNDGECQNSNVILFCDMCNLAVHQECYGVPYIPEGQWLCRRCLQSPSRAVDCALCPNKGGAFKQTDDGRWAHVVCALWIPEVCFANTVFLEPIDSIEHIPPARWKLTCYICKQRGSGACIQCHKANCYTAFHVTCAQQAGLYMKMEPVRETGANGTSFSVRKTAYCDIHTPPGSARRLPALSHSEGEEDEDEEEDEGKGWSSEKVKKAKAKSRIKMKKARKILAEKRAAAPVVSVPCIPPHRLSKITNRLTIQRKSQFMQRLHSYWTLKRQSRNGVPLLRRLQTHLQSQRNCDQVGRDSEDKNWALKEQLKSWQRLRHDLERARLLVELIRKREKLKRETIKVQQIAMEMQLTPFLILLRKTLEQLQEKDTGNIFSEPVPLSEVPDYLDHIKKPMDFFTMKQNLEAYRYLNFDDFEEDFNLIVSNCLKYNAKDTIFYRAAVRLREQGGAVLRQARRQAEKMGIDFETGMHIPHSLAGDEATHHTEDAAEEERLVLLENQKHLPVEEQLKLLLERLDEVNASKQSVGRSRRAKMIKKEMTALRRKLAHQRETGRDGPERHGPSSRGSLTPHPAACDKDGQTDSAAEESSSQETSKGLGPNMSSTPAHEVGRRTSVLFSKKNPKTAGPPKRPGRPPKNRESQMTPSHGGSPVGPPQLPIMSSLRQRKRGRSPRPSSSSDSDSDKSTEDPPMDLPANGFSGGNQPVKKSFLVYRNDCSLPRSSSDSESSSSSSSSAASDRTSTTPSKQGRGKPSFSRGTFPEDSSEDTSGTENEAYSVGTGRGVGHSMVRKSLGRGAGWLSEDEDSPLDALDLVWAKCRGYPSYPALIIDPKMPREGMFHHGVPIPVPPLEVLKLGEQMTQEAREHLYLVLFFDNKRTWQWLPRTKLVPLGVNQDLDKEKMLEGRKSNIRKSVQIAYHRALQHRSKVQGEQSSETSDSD
Nature of the test: Binding affinity to […] (unknown origin) assessed as change in gibbs free energy at 17 uM by Isothermal titration calorimetry.

Test [10] addresses T1, Bromodomain-containing protein 1 (Homo sapiens). Nature of the test: Binding affinity to BRPF2 (unknown origin) assessed as change in gibbs free energy at 12 uM by Isothermal titration calorimetry.
For test [11], the target named is Nuclear body protein SP140 (Homo sapiens) (UniProt Q13342). The note with it: dose 10.0 µM.
The target of test [12] is T2, Peregrin (Homo sapiens). Nature of the test: Binding affinity to […] (unknown origin) assessed as change in enthalpy at 17 uM by Isothermal titration calorimetry.
Test [13] addresses Muscarinic acetylcholine receptor M2 (Homo sapiens) (UniProt P08172). Kind of test: Inhibition of M2 receptor (unknown origin) at 10 uM relative to control.

Chain of Beta-2 adrenergic receptor (Homo sapiens) (P07550 whole entry, looked up): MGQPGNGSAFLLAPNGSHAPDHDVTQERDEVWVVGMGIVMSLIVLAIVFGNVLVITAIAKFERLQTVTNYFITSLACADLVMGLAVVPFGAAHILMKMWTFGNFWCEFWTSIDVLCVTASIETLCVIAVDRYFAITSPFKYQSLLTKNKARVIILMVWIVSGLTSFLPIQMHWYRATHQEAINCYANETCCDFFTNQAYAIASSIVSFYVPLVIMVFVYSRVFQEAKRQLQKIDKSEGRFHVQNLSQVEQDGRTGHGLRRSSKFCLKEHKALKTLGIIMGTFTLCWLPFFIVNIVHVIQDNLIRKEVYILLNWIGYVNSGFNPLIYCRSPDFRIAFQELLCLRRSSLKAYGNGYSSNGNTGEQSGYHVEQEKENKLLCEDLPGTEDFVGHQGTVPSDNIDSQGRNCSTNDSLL
Chain of Transcription initiation factor TFIID subunit 1-like (Homo sapiens) (Q8IZX4 whole entry): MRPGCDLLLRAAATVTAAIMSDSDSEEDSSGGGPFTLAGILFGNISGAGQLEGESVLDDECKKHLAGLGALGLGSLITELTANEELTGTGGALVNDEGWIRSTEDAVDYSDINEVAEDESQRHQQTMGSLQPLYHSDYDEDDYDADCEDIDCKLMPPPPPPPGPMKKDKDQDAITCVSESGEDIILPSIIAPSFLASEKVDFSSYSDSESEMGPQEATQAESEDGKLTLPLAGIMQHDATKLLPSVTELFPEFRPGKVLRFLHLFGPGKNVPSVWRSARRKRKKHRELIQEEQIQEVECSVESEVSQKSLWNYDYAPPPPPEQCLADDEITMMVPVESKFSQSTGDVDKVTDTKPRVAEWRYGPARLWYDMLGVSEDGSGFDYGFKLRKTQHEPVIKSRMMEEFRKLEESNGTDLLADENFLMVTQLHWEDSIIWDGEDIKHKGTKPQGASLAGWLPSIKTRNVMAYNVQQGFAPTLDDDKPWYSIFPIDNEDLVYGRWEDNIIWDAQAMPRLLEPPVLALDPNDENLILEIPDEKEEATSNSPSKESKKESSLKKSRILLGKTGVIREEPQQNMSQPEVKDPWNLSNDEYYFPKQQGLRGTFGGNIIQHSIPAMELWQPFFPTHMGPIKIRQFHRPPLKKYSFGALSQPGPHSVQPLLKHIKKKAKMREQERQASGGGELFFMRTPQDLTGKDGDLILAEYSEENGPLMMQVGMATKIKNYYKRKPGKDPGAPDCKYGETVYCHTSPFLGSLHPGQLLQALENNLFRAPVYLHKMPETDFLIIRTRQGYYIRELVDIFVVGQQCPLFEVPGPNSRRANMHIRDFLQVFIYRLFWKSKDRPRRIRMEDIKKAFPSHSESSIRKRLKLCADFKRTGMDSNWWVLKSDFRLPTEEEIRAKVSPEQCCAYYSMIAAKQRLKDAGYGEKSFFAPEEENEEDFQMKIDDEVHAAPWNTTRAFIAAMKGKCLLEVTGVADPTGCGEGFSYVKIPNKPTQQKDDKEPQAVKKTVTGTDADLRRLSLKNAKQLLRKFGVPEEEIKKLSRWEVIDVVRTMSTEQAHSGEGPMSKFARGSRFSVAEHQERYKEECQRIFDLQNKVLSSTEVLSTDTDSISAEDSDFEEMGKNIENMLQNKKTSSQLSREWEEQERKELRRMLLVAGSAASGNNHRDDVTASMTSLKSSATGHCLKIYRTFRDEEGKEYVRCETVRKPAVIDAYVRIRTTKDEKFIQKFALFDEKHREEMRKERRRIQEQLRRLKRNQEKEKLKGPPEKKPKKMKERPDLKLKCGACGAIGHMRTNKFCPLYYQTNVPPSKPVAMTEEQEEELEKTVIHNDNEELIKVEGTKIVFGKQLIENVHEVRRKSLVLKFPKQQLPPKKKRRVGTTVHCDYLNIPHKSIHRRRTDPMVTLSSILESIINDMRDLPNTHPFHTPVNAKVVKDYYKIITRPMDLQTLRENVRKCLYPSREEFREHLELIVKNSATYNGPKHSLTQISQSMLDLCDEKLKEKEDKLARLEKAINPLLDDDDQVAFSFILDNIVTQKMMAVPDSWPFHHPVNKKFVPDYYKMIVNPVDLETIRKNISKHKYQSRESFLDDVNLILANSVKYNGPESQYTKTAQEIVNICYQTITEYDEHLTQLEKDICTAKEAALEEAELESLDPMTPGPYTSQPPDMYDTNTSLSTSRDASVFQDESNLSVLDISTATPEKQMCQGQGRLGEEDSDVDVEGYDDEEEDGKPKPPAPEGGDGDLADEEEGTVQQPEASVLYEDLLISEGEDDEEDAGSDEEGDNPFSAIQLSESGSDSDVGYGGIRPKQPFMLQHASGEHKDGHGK
Chain of Muscarinic acetylcholine receptor M2 (Homo sapiens) (P08172 whole entry): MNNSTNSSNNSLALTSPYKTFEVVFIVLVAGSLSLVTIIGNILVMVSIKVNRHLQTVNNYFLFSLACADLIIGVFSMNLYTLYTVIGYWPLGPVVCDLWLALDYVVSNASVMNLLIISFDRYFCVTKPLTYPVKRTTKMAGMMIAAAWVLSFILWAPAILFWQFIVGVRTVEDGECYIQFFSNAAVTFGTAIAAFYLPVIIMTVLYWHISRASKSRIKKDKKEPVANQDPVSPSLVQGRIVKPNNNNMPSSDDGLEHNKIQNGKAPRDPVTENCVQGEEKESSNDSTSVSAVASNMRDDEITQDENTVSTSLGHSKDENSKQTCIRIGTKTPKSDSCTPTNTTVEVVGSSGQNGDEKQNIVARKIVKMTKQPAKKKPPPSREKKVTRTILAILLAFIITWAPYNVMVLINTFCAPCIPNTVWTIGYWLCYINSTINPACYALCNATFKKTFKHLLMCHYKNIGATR
Chain of Nuclear body protein SP140 (Homo sapiens) (Q13342 whole entry): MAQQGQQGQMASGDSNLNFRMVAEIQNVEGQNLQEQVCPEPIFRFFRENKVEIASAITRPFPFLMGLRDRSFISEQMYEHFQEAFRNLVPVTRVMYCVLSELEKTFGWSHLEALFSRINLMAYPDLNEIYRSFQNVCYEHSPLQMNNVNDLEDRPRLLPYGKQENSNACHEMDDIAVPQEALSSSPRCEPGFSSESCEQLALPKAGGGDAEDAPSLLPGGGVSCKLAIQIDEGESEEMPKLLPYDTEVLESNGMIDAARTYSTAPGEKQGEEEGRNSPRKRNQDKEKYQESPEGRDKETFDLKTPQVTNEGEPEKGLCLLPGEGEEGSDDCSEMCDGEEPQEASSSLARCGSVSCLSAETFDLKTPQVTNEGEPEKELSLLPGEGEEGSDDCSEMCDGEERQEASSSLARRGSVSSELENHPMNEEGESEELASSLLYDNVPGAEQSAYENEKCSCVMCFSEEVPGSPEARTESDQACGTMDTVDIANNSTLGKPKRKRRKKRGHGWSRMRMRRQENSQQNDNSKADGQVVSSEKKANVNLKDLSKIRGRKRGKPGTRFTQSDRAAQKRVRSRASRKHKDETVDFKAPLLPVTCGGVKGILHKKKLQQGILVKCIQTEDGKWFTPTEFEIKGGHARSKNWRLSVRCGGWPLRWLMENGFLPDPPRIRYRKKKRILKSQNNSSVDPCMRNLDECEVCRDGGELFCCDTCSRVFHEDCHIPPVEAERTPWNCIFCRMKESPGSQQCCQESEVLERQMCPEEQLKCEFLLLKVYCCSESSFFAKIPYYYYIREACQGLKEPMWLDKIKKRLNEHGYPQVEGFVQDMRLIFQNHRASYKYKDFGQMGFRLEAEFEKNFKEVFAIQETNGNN

For orientation: ΔTm means the change in melting temperature against a reference sample. For orientation: inhibition means the relative decrease from the control value, in per cent. Low values mean a weak effect, high ones a strong effect. Turning to `COc1cc2c(cc1NS(=O)(=O)c1ccc(Br)cc1C)n(C)c(=O)n2C`, the ΔTm in [1] is 1.4 °C; in test [2], 0.4 °C; in [11], 0.1 °C. For the same molecule, the results for the deltaH in [3], in [5] and in test [12] were -6.93 kcal/mol, -9.5 kcal/mol and -12.6 kcal/mol, respectively. The inhibition in test [4] amounted to 8%; in test [13], 9%. Further, the TdeltaS in [6] turned out to be 0.198 kcal/mol. Further, the Activity in test [7] was found to be 93.6%. The deltaG in [8] is -7.13 kcal/mol; in test [9], -9.24 kcal/mol; in test [10] it was -8.3 kcal/mol.
